From patent US8835389B2, “Use of calcitonin for the treatment of RA” (priority 2005, dated 2014) come the findings set out here.

No end group written: not given here.

The conditions of data set [1]: in vivo.
The nature of data set [2]: Water solubility of delivery agents.
Data set [3] relates to Collagen Induced Arthritis model (CIA-model) in lewis rats. Kind of data set: Collagen Induced Arthritis model (CIA-model), serum CTX-II. The settings on record: day 21 after collagen injection, 50 mg/kg 5-CNAC+calcitonin 2 mg/kg twice daily, versus CIA-group. Type of data set: in vivo. An excerpt: Arthritis induced in rodents by the systemic administration of type II collagen (CII) is an experimental model with many resemblances to RA, and is widely used for studying the disease processes (reviewed in Wooley P H, Chapedelaine J M. Immunogenetics of collagen-induced arthritis. Crit Rev Immunol 1987; 8: 1-22; and Trentham D E. Collagen arthritis as a relevant model for rheumatoid arthritis. Arth Rheum 1982; 25: 9116).
Upon immunization with purified CII in complete Freund's adjuvant, genetically susceptible strains of rodents develop arthritis, which is characterized by cellular and humoral immune responses to CII. […]
Animals are monitored for signs of arthritis one week post immunization on a daily basis and a clinical scoring system is adopted wherein each limb is given a clinical score on the basis of visual signs of oedema and/or erythema as follows: 0=normal, 1=slight swelling and/or erythema at the base of the paw, 2=frank oedema and erythema involving the entire paw, 2·5=pronounced oedema and erythema leading to an incapacitated limb mobility, 3=ankylosis, as previously described in Malfait A M, Butler D M, Presky D H et al., Blockade of IL-12 during the induction of collagen-induced arthritis (CIA) markedly attenuates the severity of the arthritis. […]

For the compound `O=C(O)CCCCCCCNC(=O)c1cc(Cl)ccc1O` [5 CNAC, N-(5-chlorosalicyloyl)-8-aminocaprylic acid], in data set [1], the “absorbed by the gastro-intestinal tract” value is on record as “greater than 90%”.

For the compound `O=C(O)CCCCCCCCCNC(=O)c1ccccc1O` [SNAD, N-(10-[2-hydroxybenzoyl]amino)decanoic acid], the water solubility result in data set [2] was “very water soluble”. For the compound “Calcitonin (CGNLSTCMLGTYTQDFNKFHTFPQTAIGVGAP; ends and bridges not checked; cysteine pairing not given here; UniProt P01258 85-116, looked up)”, in data set [3], the “reduction of the increase in serum c-terminal telopeptide of type II collagen (serum CTX-II)” value was found to be 33%.
